From ChEMBL document CHEMBL4725398 (Bioorg Med Chem, 2020)

What was measured:
[1] = tested on: SW-620; test: cells; conditions: Homo sapiens, SW-620, 48 h
Description: Antiproliferation activity against EGFR-negative human SW620 cells assessed as reduction in cell viability incubated incubated for 48 hrs by MTT assay

[2] = molecular target: Epidermal growth factor receptor (Homo sapiens, UniProt P00533); test: Inhibition of wild type EGFR (unknown origin) in presence of ATP preincubated 5 mins measured for 30 mins by detection reagent based HTRF analysis
[3] = tested on: A-431; test: cells; conditions: Homo sapiens, A-431, 48 h
Description: Antiproliferation activity against human A431 cells assessed as reduction in cell viability incubated incubated for 48 hrs by MTT assay

[4] = tested on: NCI-H1975; test: cells; conditions: Homo sapiens, NCI-H1975, 48 h
[5] = molecular target: Epidermal growth factor receptor (Homo sapiens, UniProt P00533, L858R/T790M); test: Inhibition of recombinant human EGFR T790M/L858R mutant expressed in baculovirus insect cell expression system in presence of ATP preincubated 5 mins measured for 30 mins by detection reagent based HTRF analysis
Epidermal growth factor receptor (Homo sapiens, UniProt P00533, L858R/T790M), sequence (P00533 25-1210 T790M/L858R limits assumed): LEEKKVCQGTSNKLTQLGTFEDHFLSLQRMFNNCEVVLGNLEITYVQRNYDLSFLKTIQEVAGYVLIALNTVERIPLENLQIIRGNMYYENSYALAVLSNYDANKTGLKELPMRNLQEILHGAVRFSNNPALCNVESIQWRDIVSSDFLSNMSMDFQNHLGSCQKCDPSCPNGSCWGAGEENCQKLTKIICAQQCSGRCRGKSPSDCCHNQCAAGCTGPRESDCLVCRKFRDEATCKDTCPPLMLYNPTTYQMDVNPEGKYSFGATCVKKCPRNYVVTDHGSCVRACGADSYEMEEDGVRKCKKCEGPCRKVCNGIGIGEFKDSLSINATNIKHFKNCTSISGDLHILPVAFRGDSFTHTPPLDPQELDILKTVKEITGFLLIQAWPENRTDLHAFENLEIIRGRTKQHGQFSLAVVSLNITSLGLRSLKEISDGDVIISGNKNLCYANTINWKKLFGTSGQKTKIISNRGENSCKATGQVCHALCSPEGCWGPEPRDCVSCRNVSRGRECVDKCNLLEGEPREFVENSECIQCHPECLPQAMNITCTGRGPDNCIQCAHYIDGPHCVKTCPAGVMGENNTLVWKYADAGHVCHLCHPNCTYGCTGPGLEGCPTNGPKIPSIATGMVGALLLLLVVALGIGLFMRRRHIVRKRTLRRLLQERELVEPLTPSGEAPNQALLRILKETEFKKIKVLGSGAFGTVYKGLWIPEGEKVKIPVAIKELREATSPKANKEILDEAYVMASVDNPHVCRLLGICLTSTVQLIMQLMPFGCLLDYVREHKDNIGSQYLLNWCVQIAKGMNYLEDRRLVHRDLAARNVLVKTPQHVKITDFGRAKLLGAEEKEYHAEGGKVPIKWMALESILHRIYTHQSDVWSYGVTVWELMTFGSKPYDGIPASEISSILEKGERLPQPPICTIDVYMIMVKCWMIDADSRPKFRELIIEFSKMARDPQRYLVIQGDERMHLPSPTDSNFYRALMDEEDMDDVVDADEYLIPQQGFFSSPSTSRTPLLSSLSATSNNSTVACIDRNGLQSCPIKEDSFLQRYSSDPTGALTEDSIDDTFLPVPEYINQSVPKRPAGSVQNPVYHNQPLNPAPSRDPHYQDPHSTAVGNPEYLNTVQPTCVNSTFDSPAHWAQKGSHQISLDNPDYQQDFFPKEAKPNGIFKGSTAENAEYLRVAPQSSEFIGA

[6] = tested on: COS-7; test: Cytotoxicity against African green monkey COS7 cells assessed as decrease in cell viability incubated incubated for 48 hrs by MTT assay; type: cell-based; conditions: Chlorocebus aethiops, COS-7, 48 h
[7] = tested on: NCI-H1975; test: Cell cycle arrest in human NCI-H1975 cells assessed as accumulation at G2 phase at 0.5 uM incubated for 24 hrs measured after 2 days by propidium iodide staining based flow cytometric analysis (reference value: 34.04 %); type: functional
[8] = tested on: NCI-H1975; test: Cell cycle arrest in human NCI-H1975 cells assessed as increase in accumulation at G0/G1 phase at 0.25 to 1 uM treated for 24 hrs measured after 2 days by propidium iodide staining based flow cytometric analysis (reference value: 41.92%); type: functional; conditions: dose microM 0.25-1
[9] = tested on: NCI-H1975; test: Cell cycle arrest in human NCI-H1975 cells assessed as accumulation at S phase at 0.25 uM incubated for 24 hrs measured after 2 days by propidium iodide staining based flow cytometric analysis (reference value: 24.04 %); type: functional
[10] = tested on: NCI-H1975; test: Cell cycle arrest in human NCI-H1975 cells assessed as accumulation at G2/G1 phase at 0.5 uM incubated for 24 hrs measured after 2 days by propidium iodide staining based flow cytometric analysis (reference value: 1.89 %); type: functional
[11] = tested on: NCI-H1975; test: Cell cycle arrest in human NCI-H1975 cells assessed as diploid cell at 0.25 uM incubated for 24 hrs measured after 2 days by propidium iodide staining based flow cytometric analysis (reference value: 100 %); type: functional
[12] = tested on: NCI-H1975; test: Cell cycle arrest in human NCI-H1975 cells assessed as accumulation at G1 phase at 1 uM incubated for 24 hrs measured after 2 days by propidium iodide staining based flow cytometric analysis (reference value: 41.92 %); type: functional
[13] = tested on: NCI-H1975; test: Cell cycle arrest in human NCI-H1975 cells assessed as accumulation at S phase at 1 uM incubated for 24 hrs measured after 2 days by propidium iodide staining based flow cytometric analysis (reference value: 24.04 %); type: functional
[14] = tested on: NCI-H1975; test: Cell cycle arrest in human NCI-H1975 cells assessed as accumulation at G2/G1 phase at 0.25 uM incubated for 24 hrs measured after 2 days by propidium iodide staining based flow cytometric analysis (reference value: 1.89 %); type: functional
[15] = tested on: NCI-H1975; test: Cell cycle arrest in human NCI-H1975 cells assessed as decrease in accumulation at G2/M phase at 0.25 to 1 uM incubated for 24 hrs measured after 2 days by propidium iodide staining based flow cytometric analysis (reference value: 34.04%); type: functional; parameters: scale not given: the % may be the effect or the level left; conditions: dose microM 0.25-1
[16] = tested on: NCI-H1975; test: Cell cycle arrest in human NCI-H1975 cells assessed as accumulation at G2/G1 phase at 1 uM incubated for 24 hrs measured after 2 days by propidium iodide staining based flow cytometric analysis (reference value: 1.89 %); type: functional
[17] = tested on: NCI-H1975; test: Cell cycle arrest in human NCI-H1975 cells assessed as accumulation at G2 phase at 0.25 uM incubated for 24 hrs measured after 2 days by propidium iodide staining based flow cytometric analysis (reference value: 34.04 %); type: functional
[18] = tested on: NCI-H1975; test: Cell cycle arrest in human NCI-H1975 cells assessed as accumulation at G1 phase at 0.5 uM incubated for 24 hrs measured after 2 days by propidium iodide staining based flow cytometric analysis (reference value: 41.92 %); type: functional
[19] = tested on: NCI-H1975; test: Cell cycle arrest in human NCI-H1975 cells assessed as accumulation at S phase at 0.5 uM incubated for 24 hrs measured after 2 days by propidium iodide staining based flow cytometric analysis (reference value: 24.04 %); type: functional
[20] = tested on: NCI-H1975; test: Cell cycle arrest in human NCI-H1975 cells assessed as accumulation at G1 phase at 0.25 uM incubated for 24 hrs measured after 2 days by propidium iodide staining based flow cytometric analysis (reference value: 41.92 %); type: functional
[21] = tested on: NCI-H1975; test: Cell cycle arrest in human NCI-H1975 cells assessed as diploid cell at 0.5 uM incubated for 24 hrs measured after 2 days by propidium iodide staining based flow cytometric analysis (reference value: 100 %); type: functional
[22] = tested on: NCI-H1975; test: Cell cycle arrest in human NCI-H1975 cells assessed as diploid cell at 1 uM incubated for 24 hrs measured after 2 days by propidium iodide staining based flow cytometric analysis (reference value: 100 %); type: functional
[23] = tested on: NCI-H1975; test: Cell cycle arrest in human NCI-H1975 cells assessed as accumulation at G2 phase at 1 uM incubated for 24 hrs measured after 2 days by propidium iodide staining based flow cytometric analysis (reference value: 34.04 %); type: functional

Epidermal growth factor receptor (Homo sapiens, UniProt P00533), sequence (P00533 whole entry): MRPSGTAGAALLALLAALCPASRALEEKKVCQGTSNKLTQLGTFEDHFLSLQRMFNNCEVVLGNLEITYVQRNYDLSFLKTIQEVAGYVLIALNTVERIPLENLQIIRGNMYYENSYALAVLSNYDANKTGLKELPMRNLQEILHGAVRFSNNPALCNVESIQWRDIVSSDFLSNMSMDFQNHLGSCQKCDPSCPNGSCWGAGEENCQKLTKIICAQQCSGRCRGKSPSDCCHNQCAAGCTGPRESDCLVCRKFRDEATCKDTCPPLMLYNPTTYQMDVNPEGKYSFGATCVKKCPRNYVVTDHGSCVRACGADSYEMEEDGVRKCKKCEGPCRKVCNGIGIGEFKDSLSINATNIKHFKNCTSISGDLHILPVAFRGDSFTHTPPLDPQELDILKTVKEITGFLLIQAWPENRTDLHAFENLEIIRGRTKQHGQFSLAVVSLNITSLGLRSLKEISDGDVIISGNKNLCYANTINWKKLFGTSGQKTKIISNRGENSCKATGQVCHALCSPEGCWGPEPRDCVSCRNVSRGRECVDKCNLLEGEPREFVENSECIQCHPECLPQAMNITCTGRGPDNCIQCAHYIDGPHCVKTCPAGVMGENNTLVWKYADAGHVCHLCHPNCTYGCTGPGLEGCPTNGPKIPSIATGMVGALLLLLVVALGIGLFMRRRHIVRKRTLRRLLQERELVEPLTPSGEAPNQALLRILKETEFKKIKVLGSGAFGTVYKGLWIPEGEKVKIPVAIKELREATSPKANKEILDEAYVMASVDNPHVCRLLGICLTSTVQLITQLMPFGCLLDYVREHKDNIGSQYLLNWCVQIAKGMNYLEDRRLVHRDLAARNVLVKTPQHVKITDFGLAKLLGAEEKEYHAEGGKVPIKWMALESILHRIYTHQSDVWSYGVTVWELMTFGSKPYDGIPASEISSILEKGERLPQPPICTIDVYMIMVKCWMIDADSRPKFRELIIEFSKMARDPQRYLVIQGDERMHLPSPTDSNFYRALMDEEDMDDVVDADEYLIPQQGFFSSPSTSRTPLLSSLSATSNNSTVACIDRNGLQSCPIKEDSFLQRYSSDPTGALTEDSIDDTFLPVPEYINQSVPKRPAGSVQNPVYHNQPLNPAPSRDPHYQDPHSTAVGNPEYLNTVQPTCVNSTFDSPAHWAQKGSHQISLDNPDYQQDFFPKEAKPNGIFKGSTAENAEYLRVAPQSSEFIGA

## C=C(Cl)C(=O)Nc1cccc(Nc2nc(Nc3ccc(N4CCN(C(C)=O)CC4)nc3)ncc2Cl)c1
[1]
  IC50: 2410 nM
[2]
  IC50: 130 nM
[3]
  IC50: 870 nM
[4]
  IC50: 1640 nM
[5]
  IC50: 7.5 nM

## C=C(F)C(=O)Nc1cccc(Nc2nc(Nc3ccc(N4CCN(C(C)=O)CC4)cc3OC)ncc2Cl)c1
[3]
  IC50: 1580 nM
[4]
  IC50: 1820 nM

## C=C(Cl)C(=O)Nc1cccc(Oc2nc(Nc3ccc(N4CCN(C)CC4)cc3OC)ncc2Cl)c1
[3]
  IC50: 1060 nM
[4]
  IC50: 13600 nM

## C=C(Cl)C(=O)Nc1cccc(Nc2nc(Nc3ccc(N4CCN(C(C)=O)CC4)cc3OC)ncc2Cl)c1
[3]
  IC50: 4440 nM
[4]
  IC50: 3120 nM

## C=C(Cl)C(=O)Nc1cccc(Nc2nc(Nc3ccc(N4CCN(C(C)=O)CC4)c(C)c3)ncc2Cl)c1
[1]
  IC50: 2070 nM
[2]
  IC50: 51 nM
[3]
  IC50: 1300 nM
[4]
  IC50: 180 nM
[5]
  IC50: 2.6 nM
[6]
  IC50: 5400 nM

## C=C(Cl)C(=O)Nc1cccc(Nc2nc(Nc3ccc(N4CCN(C(C)=O)CC4)cc3OC)ncc2C(F)(F)F)c1
[1]
  IC50: 3990 nM
[2]
  IC50: 257 nM
[3]
  IC50: 3680 nM
[4]
  IC50: 200 nM
[5]
  IC50: 16 nM

## C=C(F)C(=O)Nc1cc(Nc2ncc(Cl)c(-c3cn(C)c4ccccc34)n2)ccc1N(C)C
[3]
  IC50: > 50000 nM
[4]
  IC50: > 50000 nM

## C=C(F)C(=O)Nc1cccc(Oc2nc(Nc3ccc(N4CCN(C(C)=O)CC4)cc3OC)ncc2Cl)c1
[3]
  IC50: > 50000 nM
[4]
  IC50: 7030 nM

## C=C(Cl)C(=O)Nc1cccc(Oc2nc(Nc3ccc(N4CCN(C(C)=O)CC4)c(C(F)(F)F)c3)ncc2Cl)c1
[3]
  IC50: 1470 nM
[4]
  IC50: 2500 nM

## C=C(F)C(=O)Nc1cccc(Nc2nc(Nc3ccc(N4CCN(C(C)=O)CC4)c(C(F)(F)F)c3)ncc2Cl)c1
[3]
  IC50: 2860 nM
[4]
  IC50: 9880 nM

## C=C(Cl)C(=O)Nc1cccc(Nc2nc(Nc3ccc(N4CCN(C(C)=O)CC4)c(Cl)c3)ncc2Cl)c1
[1]
  IC50: 2340 nM
[2]
  IC50: 53 nM
[3]
  IC50: 140 nM
[4]
  IC50: 1020 nM
[5]
  IC50: 3.2 nM
[6]
  IC50: 7220 nM

## C=C(Cl)C(=O)Nc1cccc(Nc2nc(Nc3ccc(N4CCN(C(C)=O)CC4)cc3Cl)ncc2Cl)c1
[1]
  IC50: 3020 nM
[2]
  IC50: 301 nM
[3]
  IC50: 1830 nM
[4]
  IC50: 1720 nM
[5]
  IC50: 47 nM
[6]
  IC50: 14900 nM

## C=C(C(=O)Nc1cccc(Nc2nc(Nc3ccc(N4CCN(C(C)=O)CC4)cc3)ncc2Cl)c1)c1ccccc1
[3]
  IC50: 6160 nM
[4]
  IC50: 5790 nM

## C=C(Cl)C(=O)Nc1cccc(Oc2nc(Nc3ccc(N4CCN(C(C)=O)CC4)cc3OC)ncc2Cl)c1
[3]
  IC50: 1890 nM
[4]
  IC50: 3320 nM

## C=C(Cl)C(=O)Nc1cccc(Nc2nc(Nc3ccc(N4CCN(C(C)=O)CC4)c(F)c3)ncc2Cl)c1
[3]
  IC50: 1140 nM
[4]
  IC50: 420 nM

## C=C(F)C(=O)Nc1cccc(Nc2nc(Nc3ccc(N4CCN(C(C)=O)CC4)c(F)c3)ncc2Cl)c1
[3]
  IC50: 7090 nM
[4]
  IC50: 6560 nM

## C=C(C)C(=O)Nc1cccc(Nc2nc(Nc3ccc(N4CCN(C(C)=O)CC4)cc3OC)ncc2Cl)c1
[3]
  IC50: 2370 nM
[4]
  IC50: 3820 nM

## C=C(Cl)C(=O)Nc1cccc(Oc2nc(Nc3ccc(N4CCN(C(C)=O)CC4)cc3)ncc2Cl)c1
[1]
  IC50: 4600 nM
[2]
  IC50: 130 nM
[3]
  IC50: 620 nM
[4]
  IC50: 1150 nM
[5]
  IC50: 13 nM

## C=C(Cl)C(=O)Nc1cc(Nc2ncc(Cl)c(-c3cn(C)c4ccccc34)n2)ccc1N(C)C
[3]
  IC50: 2200 nM
[4]
  IC50: 16900 nM

## C=C(F)C(=O)Nc1cccc(Nc2nc(Nc3ccc(N4CCN(C(C)=O)CC4)c(Cl)c3)ncc2Cl)c1
[3]
  IC50: 7130 nM
[4]
  IC50: 4180 nM

## C=C(C)C(=O)Nc1cccc(Nc2nc(Nc3ccc(N4CCN(C(C)=O)CC4)cc3)ncc2Cl)c1
[3]
  IC50: 10600 nM
[4]
  IC50: 5570 nM

## C=C(Cl)C(=O)Nc1cccc(Nc2nc(Nc3ccc(N4CCN(C(C)=O)CC4)cc3)ncc2Cl)c1
[7]
  Activity: 22.18%
[8]
  Activity: 58.39%
[9]
  Activity: 21.67%
[10]
  Activity: 1.94%
[11]
  Activity: 98.52%
[1]
  IC50: 29200 nM
[12]
  Activity: 63.96%
[2]
  IC50: 70 nM
[3]
  IC50: 3140 nM
[13]
  Activity: 16.89%
[14]
  Activity: 1.95%
[15]
  Activity: 22.18%
[16]
  Activity: 1.89%
[17]
  Activity: 24.27%
[18]
  Activity: 58.39%
[4]
  IC50: 750 nM
[19]
  Activity: 19.43%
[20]
  Activity: 54.06%
[5]
  IC50: 3.9 nM
[21]
  Activity: 98.81%
[22]
  Activity: 99.81%
[23]
  Activity: 19.15%
[6]
  IC50: 10400 nM

## C=C(F)C(=O)Nc1cccc(Nc2nc(Nc3ccc(N4CCN(C(C)=O)CC4)cc3)ncc2Cl)c1
[1]
  IC50: 3610 nM
[3]
  IC50: 6500 nM
[4]
  IC50: 340 nM

## C=C(F)C(=O)Nc1cccc(Nc2nc(Nc3ccc(N4CCN(C(C)=O)CC4)nc3)ncc2Cl)c1
[3]
  IC50: 18100 nM
[4]
  IC50: 20500 nM

## C=C(F)C(=O)Nc1cccc(Oc2nc(Nc3ccc(N4CCN(C)CC4)cc3OC)ncc2Cl)c1
[3]
  IC50: 11000 nM
[4]
  IC50: 16700 nM

## C=CC(=O)Nc1cccc(Nc2nc(Nc3ccc(N4CCN(C(C)=O)CC4)cc3OC)ncc2C(F)(F)F)c1 [ROCILETINIB]
[1]
  IC50: 10500 nM
[3]
  IC50: 6010 nM
[4]
  IC50: 510 nM
[6]
  IC50: 7390 nM
